Laboratory results reported in patent US11439641B2, “Pyrimidine JAK inhibitors for the treatment of skin diseases” (THERAVANCE BIOPHARMA R&D IP, LLC, priority 2019, dated 2022).
≈ marks a conversion by molar mass, not a printed value.

Legend:
JAK3 = JAK3 (Homo sapiens (Human), UniProt P52333); experiment: Biochemical JAK and Tyk2 Kinase Assays (LanthaScreen), JAK3; settings: 1.6 μM ATP (Km), pIC50 converted to pKi by Cheng-Prusoff; for Ki: read-out: JAK 3 (pKi) (converted)
[1] = system: IL-2 stimulated pSTAT5 in Tall-1 T cells; experiment: Inhibition of IL-2 Stimulated pSTAT5 in Tall-1 T Cells; format: cell-based; settings: Tall-1 human T cell line, IL-2 300 ng/mL, AlphaLisa; for IC50: read-out: Tall-1 IL2 pSTAT5 (pIC50) (converted)
How it was run: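 Cells preincubated with compound 1 hour at 37° C, then stimulated with IL-2 (final 300 ng/mL) for 30 minutes. After lysis, pSTAT5 (Tyr694/699) read by AlphaLISA luminescence. IC50 from inhibition curves, reported as pIC50 (mean±SD).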

Tyk2 = Tyk2 (Homo sapiens (Human), UniProt P29597); experiment: Biochemical JAK and Tyk2 Kinase Assays (LanthaScreen), Tyk2; settings: 10 μM ATP (Km), pIC50 converted to pKi by Cheng-Prusoff; for Ki: read-out: Tyk 2 (pKi) (converted)
Description: (§1) Assay 1: Biochemical JAK and Tyk2 Kinase Assays
(§2) A panel of four LanthaScreen JAK biochemical assays (JAK1, 2, 3 and Tyk2) were carried in a common kinase reaction buffer (50 mM HEPES, pH 7.5, 0.01% Brij-35, 10 mM MgCl2, and 1 mM EGTA). Recombinant GST-tagged JAK enzymes and a GFP-tagged STAT1 peptide substrate were obtained from Life Technologies.
(§3) Serially or discretely diluted compounds were pre-incubated with each of the four JAK enzymes and the substrate in white 384-well microplates (Corning) at ambient temperature for 1 h. ATP was subsequently added to initiate the kinase reactions in 10 μL total volume, with 1% DMSO. The final enzyme concentrations for JAK1, 2, 3 and Tyk2 are 4.2 nM, 0.1 nM, 1 nM, and 0.25 nM respectively; the corresponding Km ATP concentrations used are 25 μM, 3 μM, 1.6 μM, and 10 μM; while the substrate concentration is 200 nM for all four assays. Kinase reactions were allowed to proceed for 1 hour at ambient temperature before a 10 μL preparation of EDTA (10 mM final concentration) and Tb-anti-pSTAT1 (pTyr701) antibody (Life Technologies, 2 nM final concentration) in TR-FRET dilution buffer (Life Technologies) was added. The plates were allowed to incubate at ambient temperature for 1 h before being read on the EnVision reader (Perkin Elmer). Emission ratio signals (520 nm/495 nm) were recorded and utilized to calculate the percent inhibition values based on DMSO and background controls.
(§4) For dose-response analysis, percent inhibition data were plotted vs. compound concentrations, and IC50 values were determined from a 4-parameter robust fit model with the Prism software (GraphPad Software). Results were expressed as pIC50 (negative logarithm of IC50) and subsequently converted to pKi (negative logarithm of dissociation constant, Ki) using the Cheng-Prusoff equation.

physchem = settings: thermodynamic from solid
JAK2 = JAK2 (Homo sapiens (Human), UniProt O60674); experiment: Biochemical JAK and Tyk2 Kinase Assays (LanthaScreen), JAK2; settings: 3 μM ATP (Km); pIC50 converted to pKi by Cheng-Prusoff
Description: as §1, §2, §3, §4

Caco-2 cell monolayer = experiment: Caco-2 Permeation Assay; format: in vitro ADME; settings: Papp, 5 μM compound; for Cacoverap Kp 10^−6 cm/sec: A→B in the presence of 25 μM verapamil (P-gp inhibitor); for Caco Kp 10^−6 cm/sec: apical to basal (A→B)
Description: Assay 3: Caco-2 Permeation Assay
The Caco 2 permeability assay was used as a surrogate for assessment of skin permeability. This assay measures the in vitro permeability across a monolayer of Caco-2 cells, which morphologically and functionally resemble the enterocytes of the small intestine.
CacoReady 24-well transwell plates were obtained from ADMEcell (Alameda, Calif.). The compounds were evaluated at a concentration of 5 μM from 10 mM DMSO stock solutions in duplicate (n=2). Transport in the apical to basal (A→B) direction was determined in Caco 2 cell monolayers. From these values the apparent permeability (Papp) was calculated. To inform on the potential of the compound to be a P-gp substrate, the transport of the compound across the Caco-2 cell monolayer was also determined in the presence of 25 μM of the known P-gp inhibitor verapamil (Yusa and Tsuruo et al., Cancer Research, vol. 49, no. 18, 1989, pp. 5002-06).
Caco-2 culture media consisted of standard filtered DMEM, FCS 10%, L-Glutamine 1%, and PenStrep 1%. The experiment was conducted at 37° C. and in a CO2 (5%) incubator. The basal assay plate was prepared by adding 750 pt of transport buffer to A→B wells. A CacoReady™ plate was prepared by removing the Caco-2 media from the apical wells and replacing with fresh transport media (200 pt repeated for a total of 3 washes). Blank media (200 μL) was then replaced with diluted compound. To begin the incubation, the basal plate was removed from the incubator and the apical section was added on top of it. Samples were collected from the apical and basal compartments for time zero (t0). Samples were collected again after 120 minutes (t120) from the apical and basal compartments. All samples were diluted and prepared for bioanalysis by LC-MS/MS. The permeability coefficients (Papp, mean A to B) and (Papp, mean A to B+Verapamil) in cm/sec were calculated as dQ (flux)/(dt×Area×concentration).
In this assay, a compound with a Papp value of more than about 12×10−6 cm/sec is considered to have high permeability.

JAK1 = JAK1 (Homo sapiens (Human), UniProt P23458); experiment: Biochemical JAK and Tyk2 Kinase Assays (LanthaScreen), JAK1; settings: 25 μM ATP (Km), pIC50 converted to pKi by Cheng-Prusoff
[2] = Solubility Assay in Organic Excipients; settings: maximum upper limit 20,000 μM; for Solubility in MCT (mg/mL): medium chain triglycerides (MCT)
Aqueous Solubility Assay = settings: PBS buffer pH 7.4; maximum upper limit 1,000 μM
[3] = oil or lipid, Solubility in MCT (mg/mL)
[4] = organic solvent or mixture, Solubility in Diisopropyl adipate (mg/mL)
[5] = organic solvent or mixture, Solubility in PEG400 (mg/mL)
[6] = organic solvent or mixture, Solubility in Propylene glycol (mg/mL)

Chain of Tyk2 (P29597 whole entry): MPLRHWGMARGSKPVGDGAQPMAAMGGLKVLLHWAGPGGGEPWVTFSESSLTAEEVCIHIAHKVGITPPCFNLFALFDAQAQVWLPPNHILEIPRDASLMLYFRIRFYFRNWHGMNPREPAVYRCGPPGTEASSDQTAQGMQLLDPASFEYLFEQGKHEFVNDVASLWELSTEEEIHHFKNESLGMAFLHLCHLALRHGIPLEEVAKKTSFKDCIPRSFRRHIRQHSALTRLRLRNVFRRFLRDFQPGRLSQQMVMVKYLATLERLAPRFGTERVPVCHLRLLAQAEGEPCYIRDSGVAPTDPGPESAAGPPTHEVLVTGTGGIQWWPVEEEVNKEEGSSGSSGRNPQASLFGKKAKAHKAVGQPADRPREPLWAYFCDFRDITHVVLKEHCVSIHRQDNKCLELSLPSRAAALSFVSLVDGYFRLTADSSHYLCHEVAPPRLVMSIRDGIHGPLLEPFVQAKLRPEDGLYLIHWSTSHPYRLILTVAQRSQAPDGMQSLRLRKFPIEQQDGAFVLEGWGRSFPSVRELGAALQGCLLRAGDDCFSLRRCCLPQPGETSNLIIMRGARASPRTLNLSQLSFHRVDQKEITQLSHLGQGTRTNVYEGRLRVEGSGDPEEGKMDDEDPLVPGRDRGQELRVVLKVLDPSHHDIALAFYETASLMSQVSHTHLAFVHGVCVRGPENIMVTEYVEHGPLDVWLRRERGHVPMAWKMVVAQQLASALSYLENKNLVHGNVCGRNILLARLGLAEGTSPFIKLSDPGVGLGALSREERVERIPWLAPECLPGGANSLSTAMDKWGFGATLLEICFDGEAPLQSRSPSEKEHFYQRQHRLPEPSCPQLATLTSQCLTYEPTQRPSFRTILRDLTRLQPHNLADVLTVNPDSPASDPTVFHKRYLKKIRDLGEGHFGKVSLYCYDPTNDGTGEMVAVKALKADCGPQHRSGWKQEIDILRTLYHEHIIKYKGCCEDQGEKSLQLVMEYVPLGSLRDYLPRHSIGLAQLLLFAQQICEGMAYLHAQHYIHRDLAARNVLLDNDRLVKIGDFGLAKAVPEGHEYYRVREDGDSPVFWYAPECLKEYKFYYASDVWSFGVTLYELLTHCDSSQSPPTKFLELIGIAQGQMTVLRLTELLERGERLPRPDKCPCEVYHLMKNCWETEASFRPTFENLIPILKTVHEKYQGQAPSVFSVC
Chain of JAK3 (P52333 whole entry): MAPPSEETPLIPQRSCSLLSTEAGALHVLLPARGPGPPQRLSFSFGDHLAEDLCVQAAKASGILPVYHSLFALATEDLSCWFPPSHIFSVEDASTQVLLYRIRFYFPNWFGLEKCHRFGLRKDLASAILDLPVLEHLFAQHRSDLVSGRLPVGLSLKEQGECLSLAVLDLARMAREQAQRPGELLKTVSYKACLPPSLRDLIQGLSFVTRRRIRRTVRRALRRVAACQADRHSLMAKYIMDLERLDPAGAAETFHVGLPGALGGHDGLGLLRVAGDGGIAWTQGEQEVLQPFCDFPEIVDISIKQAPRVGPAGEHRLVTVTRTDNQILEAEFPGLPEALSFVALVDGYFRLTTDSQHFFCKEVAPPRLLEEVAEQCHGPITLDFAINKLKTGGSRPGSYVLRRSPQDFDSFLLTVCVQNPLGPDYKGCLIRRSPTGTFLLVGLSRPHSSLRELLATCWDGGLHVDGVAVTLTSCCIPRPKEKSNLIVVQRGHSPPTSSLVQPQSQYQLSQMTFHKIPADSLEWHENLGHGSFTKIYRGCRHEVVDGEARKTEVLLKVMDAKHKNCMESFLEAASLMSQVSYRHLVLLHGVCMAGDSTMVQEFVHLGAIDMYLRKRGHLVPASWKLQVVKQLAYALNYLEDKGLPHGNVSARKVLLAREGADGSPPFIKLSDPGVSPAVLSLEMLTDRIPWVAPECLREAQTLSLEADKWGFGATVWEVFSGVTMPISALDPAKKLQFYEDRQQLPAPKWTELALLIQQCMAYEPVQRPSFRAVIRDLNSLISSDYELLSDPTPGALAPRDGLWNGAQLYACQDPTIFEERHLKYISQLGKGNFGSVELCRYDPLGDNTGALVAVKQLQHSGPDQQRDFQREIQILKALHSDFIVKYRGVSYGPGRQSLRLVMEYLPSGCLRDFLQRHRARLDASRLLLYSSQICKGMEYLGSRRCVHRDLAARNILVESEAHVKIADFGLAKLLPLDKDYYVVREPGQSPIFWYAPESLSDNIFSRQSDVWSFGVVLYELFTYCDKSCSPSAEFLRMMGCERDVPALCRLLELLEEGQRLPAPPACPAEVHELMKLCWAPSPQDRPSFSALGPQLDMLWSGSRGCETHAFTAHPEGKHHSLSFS
Chain of JAK1 (P23458 whole entry): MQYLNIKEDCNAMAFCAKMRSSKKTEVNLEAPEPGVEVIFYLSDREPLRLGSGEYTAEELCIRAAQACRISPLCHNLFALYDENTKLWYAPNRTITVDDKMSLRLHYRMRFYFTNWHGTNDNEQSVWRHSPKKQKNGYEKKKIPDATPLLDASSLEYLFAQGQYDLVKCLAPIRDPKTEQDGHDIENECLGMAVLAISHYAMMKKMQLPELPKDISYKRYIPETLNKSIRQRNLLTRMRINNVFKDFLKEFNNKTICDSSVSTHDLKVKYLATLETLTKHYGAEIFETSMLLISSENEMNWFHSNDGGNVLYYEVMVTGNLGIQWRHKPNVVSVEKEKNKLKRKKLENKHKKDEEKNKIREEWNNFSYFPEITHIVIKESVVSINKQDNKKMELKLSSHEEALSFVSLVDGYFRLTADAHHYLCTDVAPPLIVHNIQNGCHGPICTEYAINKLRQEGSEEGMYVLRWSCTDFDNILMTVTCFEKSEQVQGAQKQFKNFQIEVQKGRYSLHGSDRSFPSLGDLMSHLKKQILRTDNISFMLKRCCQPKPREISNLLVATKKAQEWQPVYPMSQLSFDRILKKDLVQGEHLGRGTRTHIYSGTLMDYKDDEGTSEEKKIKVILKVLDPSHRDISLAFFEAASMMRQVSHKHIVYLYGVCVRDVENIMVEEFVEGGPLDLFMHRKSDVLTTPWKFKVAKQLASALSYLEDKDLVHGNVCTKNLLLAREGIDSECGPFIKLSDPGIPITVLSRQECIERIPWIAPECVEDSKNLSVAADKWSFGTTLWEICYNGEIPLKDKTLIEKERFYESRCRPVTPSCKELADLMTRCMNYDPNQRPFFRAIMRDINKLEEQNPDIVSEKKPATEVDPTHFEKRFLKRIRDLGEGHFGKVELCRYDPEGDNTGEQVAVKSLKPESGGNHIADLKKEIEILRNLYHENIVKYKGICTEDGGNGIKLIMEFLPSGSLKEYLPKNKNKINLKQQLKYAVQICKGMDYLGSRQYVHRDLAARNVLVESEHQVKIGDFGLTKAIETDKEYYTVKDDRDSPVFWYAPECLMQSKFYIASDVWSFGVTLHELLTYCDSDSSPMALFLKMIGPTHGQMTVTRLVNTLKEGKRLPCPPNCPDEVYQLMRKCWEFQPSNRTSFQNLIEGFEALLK
Chain of JAK2 (O60674 whole entry): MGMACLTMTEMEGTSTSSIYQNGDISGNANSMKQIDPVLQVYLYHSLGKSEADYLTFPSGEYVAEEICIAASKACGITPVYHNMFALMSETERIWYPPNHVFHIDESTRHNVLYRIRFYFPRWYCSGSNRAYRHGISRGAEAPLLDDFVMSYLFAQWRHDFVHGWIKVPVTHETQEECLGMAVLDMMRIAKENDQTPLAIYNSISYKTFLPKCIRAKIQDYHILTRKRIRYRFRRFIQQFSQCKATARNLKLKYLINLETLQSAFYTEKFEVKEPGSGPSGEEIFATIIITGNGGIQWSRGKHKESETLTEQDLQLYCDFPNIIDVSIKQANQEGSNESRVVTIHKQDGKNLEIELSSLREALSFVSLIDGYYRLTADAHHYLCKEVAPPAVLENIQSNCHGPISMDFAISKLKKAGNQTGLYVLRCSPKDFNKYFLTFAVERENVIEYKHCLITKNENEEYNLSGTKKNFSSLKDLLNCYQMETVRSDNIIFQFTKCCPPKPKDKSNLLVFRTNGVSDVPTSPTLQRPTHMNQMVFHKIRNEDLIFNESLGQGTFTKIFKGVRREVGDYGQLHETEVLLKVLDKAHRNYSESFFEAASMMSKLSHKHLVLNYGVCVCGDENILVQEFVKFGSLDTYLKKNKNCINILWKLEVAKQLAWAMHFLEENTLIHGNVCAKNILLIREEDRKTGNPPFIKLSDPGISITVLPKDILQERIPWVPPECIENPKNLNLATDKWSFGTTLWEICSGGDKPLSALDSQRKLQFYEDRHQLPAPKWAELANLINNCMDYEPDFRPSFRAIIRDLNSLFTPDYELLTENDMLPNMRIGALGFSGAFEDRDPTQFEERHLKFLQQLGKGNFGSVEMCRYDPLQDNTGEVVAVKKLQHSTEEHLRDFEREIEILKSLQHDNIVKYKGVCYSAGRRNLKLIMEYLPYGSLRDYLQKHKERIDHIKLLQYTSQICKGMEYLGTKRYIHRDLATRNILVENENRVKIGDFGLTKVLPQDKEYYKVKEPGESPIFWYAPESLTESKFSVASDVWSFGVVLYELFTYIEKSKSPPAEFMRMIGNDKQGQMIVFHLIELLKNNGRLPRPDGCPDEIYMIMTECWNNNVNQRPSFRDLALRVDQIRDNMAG

Compound | Ki (JAK3) | IC50 [1] | Ki (Tyk2) | solubility at 4 h (physchem; [3]) | solubility at 4 h (physchem; [4]) | solubility at 4 h (physchem; [5]) | solubility at 4 h (physchem; [6]) | JAK 2 (pKi) (JAK2) | Cacoverap Kp 10^−6 cm/sec (Caco-2 cell monolayer) | Caco Kp 10^−6 cm/sec (Caco-2 cell monolayer) | Ki (JAK1; read-out: JAK 1 (pKi) (converted)) | JAK 1 (pKi) (JAK1) | JAK 3 (pKi) (JAK3) | Solubility in PEG400 (mg/mL) [2] | Solubility in Diisopropyl adipate (mg/mL) [2] | Solubility in MCT (mg/mL) [2] | Solubility in Propylene glycol (mg/mL) [2] | Tall-1 IL2 pSTAT5 (pIC50) [1] | Solubility at PH 7.4 (μmol) (Aqueous Solubility Assay) | Tyk 2 (pKi) (Tyk2)
Cc1cc(Nc2cc(O[C@H]3CCOC3)nc(N(C)[C@@H]3C[C@H]4CCC[C@@H](C3)N4CC(=O)N3CCCC3)n2)n[nH]1 [Compound 31] | 0.1 to 1 nM | ≤ 10 nM | 0.1 to 1 nM | < 5000 µg/mL | < 5000 µg/mL | < 5000 µg/mL | < 5000 µg/mL | A (A represents a pKi value ≥10 (Ki≤0.1 nM)) | C (C represents a value between 12×10^−6 and 20×10^−6 cm/sec) | C (C represents a value below 15×10^−6 cm/sec) | 0.1 to 1 nM | – | – | – | – | – | – | – | – | –
COCCOC(=O)N1[C@@H]2CCC[C@H]1C[C@H](N(C)c1nc(Nc3cc(C)[nH]n3)cc(O[C@@H]3CCOC3)n1)C2 [Compound 22] | 0.1 to 1 nM | 10 to 31.6 nM | 0.1 to 1 nM | < 5000 µg/mL | > 10000 µg/mL | > 10000 µg/mL | > 10000 µg/mL | A (A represents a pKi value ≥10 (Ki≤0.1 nM)) | B (B represents a value between 20×10^−6 and 35×10^−6 cm/sec) | B (B represents a value between 15×10^−6 and 30×10^−6 cm/sec) | – | A (A represents a pKi value ≥10 (Ki≤0.1 nM)) | – | – | – | – | – | – | – | –
Cc1cc(Nc2cc(O[C@@H]3CCOC3)nc(N(C)[C@@H]3C[C@H]4CCC[C@@H](C3)N4C(=O)OC3CCOCC3)n2)n[nH]1 [Compound 21] | 0.1 to 1 nM | 10 to 31.6 nM | 0.1 to 1 nM | 5000 to 10000 µg/mL (≈ 9.23 to 18.5 mM) | > 10000 µg/mL | > 10000 µg/mL | > 10000 µg/mL | A (A represents a pKi value ≥10 (Ki≤0.1 nM)) | B (B represents a value between 20×10^−6 and 35×10^−6 cm/sec) | B (B represents a value between 15×10^−6 and 30×10^−6 cm/sec) | – | A (A represents a pKi value ≥10 (Ki≤0.1 nM)) | – | – | – | – | – | – | – | –
COC(=O)N1[C@@H]2CCC[C@H]1C[C@H](N(C)c1nc(Nc3cc(C)[nH]n3)cc(C3CCCO3)n1)C2 (stereo partly drawn) [Compound 11, methyl (1R,3s,5S)-3-(methyl(4-((5-methyl-1H-pyrazol-3-yl)amino)-6-(tetrahydrofuran-2-yl)pyrimidin-2-yl)amino)-9-azabicyclo[3.3.1]nonane-9-carboxylate] | – | – | – | – | – | – | – | B (B represents a pKi value between 9 and 10 (Ki between 1 nM and 0.1 nM)) | B (B represents a value between 20×10^−6 and 35×10^−6 cm/sec) | B (B represents a value between 15×10^−6 and 30×10^−6 cm/sec) | – | A (A represents a pKi value ≥10 (Ki≤0.1 nM)) | C (C represents a pKi value between 8 and 9 (Ki between 10 nM and 1 nM)) | A (A represents a value above 10) | A (A represents a value above 10) | B (B represents a value between 5 and 10) | A (A represents a value above 10) | A (A represents a pIC50 value ≥8.0) | C (C represents a value between 50 and 250) | B (B represents a pKi value between 9 and 10 (Ki between 1 nM and 0.1 nM))
Cc1cc(Nc2cc(C3CCCO3)nc(N(C)[C@@H]3C[C@H]4CCC[C@@H](C3)N4C(=O)OC3CCOCC3)n2)n[nH]1 (stereo partly drawn) [Compound 14, tetrahydro-2H-pyran-4-yl (1R,3s,5S)-3-(methyl(4-((5-methyl-1H-pyrazol-3-yl)amino)-6-(tetrahydrofuran-2-yl)pyrimidin-2-yl)amino)-9-azabicyclo[3.3.1]nonane-9-carboxylate] | – | – | – | – | – | – | – | A (A represents a pKi value ≥10 (Ki≤0.1 nM)) | B (B represents a value between 20×10^−6 and 35×10^−6 cm/sec) | B (B represents a value between 15×10^−6 and 30×10^−6 cm/sec) | – | A (A represents a pKi value ≥10 (Ki≤0.1 nM)) | C (C represents a pKi value between 8 and 9 (Ki between 10 nM and 1 nM)) | A (A represents a value above 10) | A (A represents a value above 10) | B (B represents a value between 5 and 10) | A (A represents a value above 10) | B (B represents a pIC50 value between 7.5 (included) and 8.0) | D (D represents a value between 10 and 50) | B (B represents a pKi value between 9 and 10 (Ki between 1 nM and 0.1 nM))
COCCOC(=O)N1[C@@H]2CCC[C@H]1C[C@H](N(C)c1nc(Nc3cc(C)[nH]n3)cc(C3CCCO3)n1)C2 (stereo partly drawn) [Compound 13, 2-methoxyethyl (1R,3s,5S)-3-(methyl(4-((5-methyl-1H-pyrazol-3-yl)amino)-6-(tetrahydrofuran-2-yl)pyrimidin-2-yl)amino)-9-azabicyclo[3.3.1]nonane-9-carboxylate] | – | – | – | – | – | – | – | A (A represents a pKi value ≥10 (Ki≤0.1 nM)) | – | – | – | A (A represents a pKi value ≥10 (Ki≤0.1 nM)) | C (C represents a pKi value between 8 and 9 (Ki between 10 nM and 1 nM)) | A (A represents a value above 10) | A (A represents a value above 10) | B (B represents a value between 5 and 10) | A (A represents a value above 10) | B (B represents a pIC50 value between 7.5 (included) and 8.0) | C (C represents a value between 50 and 250) | B (B represents a pKi value between 9 and 10 (Ki between 1 nM and 0.1 nM))
